Measurements published in patent US6469137B1, “Myelopeptides and their therapeutic use” (Primamedic, Ltd, priority 1997, dated 2002).
Where a SMILES comes first, the peptide text is derived from it.

Assays:
MT4 cells = format: cell-based, human
Method: The HIV-infected MT4 cells were incubated in RPMI-1640 culture medium supplemented with 10% FBS and 2 mM L-glutamine. The MT4 cells (0.5 million cells per 1 ml of culture medium) were placed in wells of a 24-well plastic culture plates and kept for 7 days of 37° C. in an atmosphere of 4.5% CO2. Each of the MPs examined was added into respective wells of the culture plates, to final concentrations of 0.1, 0.5, 1, 5, 10, 50 and 100 μg per 1 ml of culture were used. Azidothymidine (Sigma Chemical Co.) at its final concentration of 0.1 μg/ml, was used as a positive anti-viral control during each of the experiments.
Azidothymidine (0.1 μg/ml) caused 100% inhibition of HIV replication in the infected MT-4 cells.

[1] = test system: encephalomyocarditis virus (EMV); test: Anti-viral activity in vitro, L929 cells infected by EMV; format: cell-based, mouse; conditions: pre-incubation 24 or 48 h, then 100 TCID50 of EMV
Method: The L929 mouse fibroblastoid cell line was maintained in vitro as described above. MP-3, MP-4, MP-5 and MP-6 were added into triplicate cultures using the following final concentrations: 500, 250, 125, 63, 31, 16, 8, 4, 2, 1, 0.5, 0.25 μg per 1 ml of culture. Ridostin was used as a control interferon-inducer.
24 or 48 h post-injection, the L929 cell cultures were infected by 100 TCID50 of EMV. During the next 24 h the viral infection caused dramatic damages in L929 cells. […] MP-5, by contrast, when added in a final concentration of 16 μg/ml or more, completely abrogated destructive influence of the virus on L929 cells. So did MP-6, when added at a concentration of 4 μg/ml or more. […] MP-4 also defended the L929 cells from the virus-induced damage, after 48 h exposure of the cells in the presence of 32 μg/ml (or higher concentration) of the preparation before their challenge by the virus.

serum interferon = test: Serum interferon increase in mice (titration on EMV-infected L929 cells); format: in vivo; conditions: dose and time not given

CC(C)[C@H](N)C(=O)N[C@@H](CC(=O)O)C(=O)N1CCC[C@H]1C(=O)N1CCC[C@H]1C(=O)O [MP-6, VDPP] (H-VDPP-OH; N-terminus and C-terminus assumed)
Damage of MT4 cells (cell viability) (MT4 cells): no visible damage

CC[C@H](C)[C@H](NC(=O)[C@H](CCCNC(=N)N)NC(=O)[C@@H]1CCCN1C(=O)[C@H](CCCNC(=N)N)NC(=O)[C@@H](N)Cc1ccccc1)C(=O)N[C@@H](CCSC)C(=O)N[C@H](C(=O)N1CCC[C@H]1C(=O)O)[C@@H](C)O [MP-4, FRPRIMTP] (H-FRPRIMTP-OH; N-terminus and C-terminus assumed)
Damage of MT4 cells (cell viability) (MT4 cells): no visible damage

CC(C)[C@H](N)C(=O)N[C@H](C(=O)N[C@@H](Cc1ccc(O)cc1)C(=O)N1CCC[C@H]1C(=O)N[C@@H](CC(=O)O)C(=O)O)C(C)C [MP-5, VVYPD] (H-VVYPD-OH; N-terminus and C-terminus assumed)
Damage of MT4 cells (cell viability) (MT4 cells): no visible damage

Ridostin
Concentration that completely abrogated destructive influence of the virus on L929 cells [1]: ≥ 0.5 µg/mL | Serum interferon titer, level characteristic of positive control (serum interferon): 320 units/ml

CC(C)C[C@H](N)C(=O)N[C@H](C(=O)N[C@@H](CS)C(=O)N[C@@H](Cc1ccc(O)cc1)C(=O)N1CCC[C@H]1C(=O)N[C@@H](CCC(N)=O)C(=O)O)C(C)C [MP-3, LVCYPQ] (H-LVCYPQ-OH; N-terminus and C-terminus assumed)
Damage of MT4 cells (cell viability) (MT4 cells): no visible damage
